Data: PubChem BioAssay AID1963839 (Molecular Pharmacology Branch, DTP, NCI, 2024)

Tested on: 817829-284-R-J1-PDC complex spheroid viability
Experiment: Anticancer human tumor 817829-284-R-J1-PDC patient-derived colon adenocarcinoma cell line growth inhibition [POLQ]
Conditions: for IC50: curve of first compound; for viability, T/C: stronger effect = lower value
How it was run: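 Complex spheroid viability model combining PDC tumour cells with endothelial (HUVEC) and MSC stromal cells. Novobiocin, ART-558 or RP6685 were tested singly and in combination with standard and investigational anticancer drugs. Each was titrated in half-log steps from near clinical Cmax, or from 10 microM where Cmax was unknown.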

[1] = second compound 0.0316 µM, first compound 0.00316 µM
[2] = second compound 0.0316 µM, first compound 0.01 µM
[3] = second compound 0.0316 µM, first compound 0.0316 µM
[4] = second compound 0.0316 µM, first compound 0.1 µM
[5] = second compound 0.0316 µM, first compound 0.316 µM
[6] = second compound 0.0316 µM, first compound 1 µM
[7] = second compound 0.1 µM, first compound 0.00316 µM
[8] = second compound 0.1 µM, first compound 0.01 µM
[9] = second compound 0.1 µM, first compound 0.0316 µM
[10] = second compound 0.1 µM, first compound 0.1 µM
[11] = second compound 0.1 µM, first compound 0.316 µM
[12] = second compound 0.1 µM, first compound 1 µM
[13] = second compound 0.316 µM, first compound 0.00316 µM
[14] = second compound 0.316 µM, first compound 0.01 µM
[15] = second compound 0.316 µM, first compound 0.0316 µM
[16] = second compound 0.316 µM, first compound 0.1 µM
[17] = second compound 0.316 µM, first compound 0.316 µM
[18] = second compound 0.316 µM, first compound 1 µM
[19] = second compound 1 µM, first compound 0.00316 µM
[20] = second compound 1 µM, first compound 0.01 µM
[21] = second compound 1 µM, first compound 0.0316 µM
[22] = second compound 1 µM, first compound 0.1 µM
[23] = second compound 1 µM, first compound 0.316 µM
[24] = second compound 1 µM, first compound 1 µM
[25] = second compound 3.16 µM, first compound 0.00316 µM
[26] = second compound 3.16 µM, first compound 0.01 µM
[27] = second compound 3.16 µM, first compound 0.0316 µM
[28] = second compound 3.16 µM, first compound 0.1 µM
[29] = second compound 3.16 µM, first compound 0.316 µM
[30] = second compound 3.16 µM, first compound 1 µM
[31] = second compound 10 µM, first compound 0.00316 µM
[32] = second compound 10 µM, first compound 0.01 µM
[33] = second compound 10 µM, first compound 0.0316 µM
[34] = second compound 10 µM, first compound 0.1 µM
[35] = second compound 10 µM, first compound 0.316 µM
[36] = second compound 10 µM, first compound 1 µM
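Also: spheroids exposed to compounds for 7 days.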
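For viability, T/C in this document: 100% = DMSO vehicle-treated spheroids.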

Molecule `C=CCn1c(=O)c2cnc(Nc3ccc(N4CCN(C)CC4)cc3)nc2n1-c1cccc(C(C)(C)O)n1` + Cc1cccc(N(C)C(=O)C2C(O)CCN2c2nc(C)cc(C(F)(F)F)c2C#N)c1 has an IC50 (second compound 0.0316 µM) of 155 nM, an IC50 (second compound 0.1 µM) of 218 nM and an IC50 (second compound 0.316 µM) of 259 nM. It also gave an IC50 (second compound 1 µM) of 236 nM, an IC50 (second compound 3.16 µM) of 258 nM and an IC50 (second compound 10 µM) of 233 nM. For the same molecule, the viability, T/C [1] was 90.2%, the viability, T/C [2] was 91.5% and the viability, T/C [3] was 102%. It also gave a viability, T/C [4] of 53.4%, a viability, T/C [5] of 34.8% and a viability, T/C [6] of 5.25%. For the same molecule, the viability, T/C [7] was 91.6%, the viability, T/C [8] was 92.9% and the viability, T/C [9] was 89.3%. For the same molecule, the viability, T/C [10] was 71.1%, the viability, T/C [11] was 39.9% and the viability, T/C [12] was 5.58%. For the same molecule, the viability, T/C [13] was 98.3%, the viability, T/C [14] was 107% and the viability, T/C [15] was 93.8%. The viability, T/C [16] was 84.9%, the viability, T/C [17] was 42.6% and the viability, T/C [18] was 7.22%. For the same molecule, the viability, T/C [19] was 111%, the viability, T/C [20] was 98.2% and the viability, T/C [21] was 101%. For the same molecule, the viability, T/C [22] was 82.4%, the viability, T/C [23] was 38.7% and the viability, T/C [24] was 6.42%. It also gave a viability, T/C [25] of 104%, a viability, T/C [26] of 102% and a viability, T/C [27] of 99.6%. The viability, T/C [28] was 74.9%, the viability, T/C [29] was 45.3% and the viability, T/C [30] was 6.52%. It also gave a viability, T/C [31] of 118%, a viability, T/C [32] of 88.9% and a viability, T/C [33] of 86.2%. For the same molecule, the viability, T/C [34] was 79.4%, the viability, T/C [35] was 39.5% and the viability, T/C [36] was 5.63%.
For `COc1cccc(OCCCN)c1-c1cc(Nc2cnc(C#N)cn2)n[nH]1` + COC1C(OC(N)=O)C(O)C(Oc2ccc3c(O)c(NC(=O)c4ccc(O)c(CC=C(C)C)c4)c(=O)oc3c2C)OC1(C)C, the IC50 (second compound 0.0316 µM) was less than 3.16 nM, the IC50 (second compound 0.1 µM) was less than 3.16 nM and the IC50 (second compound 0.316 µM) was less than 3.16 nM. The IC50 (second compound 1 µM) was less than 3.16 nM, the IC50 (second compound 3.16 µM) was less than 3.16 nM and the IC50 (second compound 10 µM) was less than 3.16 nM. It also gave a viability, T/C [1] of 29.9%, a viability, T/C [2] of 8.3% and a viability, T/C [3] of 5.67%. For the same molecule, the viability, T/C [4] was 5.85%, the viability, T/C [5] was 4.68% and the viability, T/C [6] was 3.39%. The viability, T/C [7] was 26%, the viability, T/C [8] was 11.2% and the viability, T/C [9] was 6.67%. It also gave a viability, T/C [10] of 5.76%, a viability, T/C [11] of 5.35% and a viability, T/C [12] of 3.07%. For the same molecule, the viability, T/C [13] was 29.5%, the viability, T/C [14] was 8.79% and the viability, T/C [15] was 6.28%. It also gave a viability, T/C [16] of 5.55%, a viability, T/C [17] of 4.77% and a viability, T/C [18] of 3.42%. It also gave a viability, T/C [19] of 39.1%, a viability, T/C [20] of 8.54% and a viability, T/C [21] of 6.62%. The viability, T/C [22] was 4.99%, the viability, T/C [23] was 4.97% and the viability, T/C [24] was 3.65%. The viability, T/C [25] was 44.4%, the viability, T/C [26] was 8.05% and the viability, T/C [27] was 5.78%. It also gave a viability, T/C [28] of 4.98%, a viability, T/C [29] of 4.52% and a viability, T/C [30] of 4.11%. It also gave a viability, T/C [31] of 26.2%, a viability, T/C [32] of 8.47% and a viability, T/C [33] of 6.63%. For the same molecule, the viability, T/C [34] was 5.63%, the viability, T/C [35] was 4.76% and the viability, T/C [36] was 4.08%.
`CCCS(=O)(=O)Nc1ccc(F)c(C(=O)c2c[nH]c3ncc(-c4ccc(Cl)cc4)cc23)c1F` + Nc1ccc(C#CCN(C(=O)Cc2ncc(C(F)(F)F)cc2C(F)(F)F)c2ccc(F)cc2)nn1 gave an IC50 (second compound 0.0316 µM) of 4470 nM, an IC50 (second compound 0.1 µM) of 4540 nM and an IC50 (second compound 0.316 µM) of 3460 nM. It also gave an IC50 (second compound 1 µM) of 3750 nM, an IC50 (second compound 3.16 µM) of 4490 nM and an IC50 (second compound 10 µM) of 3680 nM. It also gave a viability, T/C [3] of 90%, a viability, T/C [4] of 75.5% and a viability, T/C [5] of 93.2%. It also gave a viability, T/C [6] of 91.3%, a viability, T/C (second compound 0.0316 µM, first compound 3.16 µM) of 67.2% and a viability, T/C (second compound 0.0316 µM, first compound 10 µM) of 9.94%. The viability, T/C [9] was 90.4%, the viability, T/C [10] was 55.9% and the viability, T/C [11] was 81.7%. It also gave a viability, T/C [12] of 74.7%, a viability, T/C (second compound 0.1 µM, first compound 3.16 µM) of 68.2% and a viability, T/C (second compound 0.1 µM, first compound 10 µM) of 10.4%. For the same molecule, the viability, T/C [15] was 85%, the viability, T/C [16] was 85.4% and the viability, T/C [17] was 83.2%. For the same molecule, the viability, T/C [18] was 75.8%, the viability, T/C (second compound 0.316 µM, first compound 3.16 µM) was 53.2% and the viability, T/C (second compound 0.316 µM, first compound 10 µM) was 11.5%. For the same molecule, the viability, T/C [21] was 84%, the viability, T/C [22] was 76.7% and the viability, T/C [23] was 88.2%. For the same molecule, the viability, T/C [24] was 66.3%, the viability, T/C (second compound 1 µM, first compound 3.16 µM) was 58.6% and the viability, T/C (second compound 1 µM, first compound 10 µM) was 13.9%. It also gave a viability, T/C [27] of 95.2%, a viability, T/C [28] of 62.6% and a viability, T/C [29] of 78.7%. It also gave a viability, T/C [30] of 84.2%, a viability, T/C (second compound 3.16 µM, first compound 3.16 µM) of 66.1% and a viability, T/C (second compound 3.16 µM, first compound 10 µM) of 13.2%. For the same molecule, the viability, T/C [33] was 88.9%, the viability, T/C [34] was 64.8% and the viability, T/C [35] was 75.8%. It also gave a viability, T/C [36] of 75.9%, a viability, T/C (second compound 10 µM, first compound 3.16 µM) of 55.6% and a viability, T/C (second compound 10 µM, first compound 10 µM) of 13.6%.
